Patent publication US20230106238A1, “PHARMACEUTICAL COMPOSITION FOR PREVENTING OR TREATING NK/T-CELLLYMPHOMA OR NK-CELL LEUKEMIA, COMPRISING PHOSPHODIESTERASE TYPE 5 INHIBITOR” (SAMSUNG LIFE PUBLIC WELFARE FOUNDATION, priority 2020, published 2023)

What was measured:
Type in all cases: cell-based
[1] = system: Epstein-Barr virus (EBV) reactivation in 1A2 cell line (lymphoma); assay: EBV reactivation by romidepsin in 1A2 cell line (BZLF1/BRLF1 mRNA); conditions: romidepsin 1 or 10 nM, 72 hours
Experimental: (§1) EBV-positive cell lines other than SNK6 and NK92MI were collected to identify EBV reactivity by romidepsin and the effect of sildenafil. As EBV-positive cell lines, the Daudi cell line (ATCC, CCL-213) and Raji cell line (ATCC, CCL-86), which are Burkitt's lymphoma cells, and the 1A2 cell line (ATCC, CRL-8119), which is a lymphoma cell, were treated with 1 or 10 nM of romidepsin for 72 hours, and mRNA expression of BZLF1 and BRLF1, genes whose expression is increased in EBV reactivation, was identified. The results for BZLF1 mRNA expression of the Daudi cell line are shown in FIG. 3A, and the results for BRLF1 mRNA expression are shown in FIG. 3B. In addition, the results for BZLF1 mRNA expression of the Raji cell line are shown in FIG. 3C, and the results for BRLF1 mRNA expression are shown in FIG. 3D. In addition, the results for BZLF1 mRNA expression of the 1A2 cell line are shown in FIG. 3E, and the results for BRLF1 mRNA expression are shown in FIG. 3F.

[2] = system: Epstein-Barr virus (EBV) reactivation in NK/T-cell lymphoma cell line SNK6; assay: EBV reactivation by romidepsin in SNK6 cells (real-time PCR of BZLF1/BRLF1 mRNA, EBV copy number)
Experimental: (§2) The NK/T-cell lymphoma cell line SNK6 (source; Seoul National University) and the NK-cell leukemia cell line NK92MI (source; Seoul National University) were treated with the HDAC inhibitor, romidepsin 10 nM, and the PDE5 inhibitor, sildenafil 100 nM, for 24, 48, and 72 hours. After treatment, cells were harvested […]. Then, RNA was extracted using TRIzol reagent (Ambion, Life technologies), cDNA synthesis was performed using Omniscript RT kit (Qiagen), and the expression of BZLF1, an mRNA expressed during EBV reactivation, was identified through real-time PCR. The group treated with DMSO only was used as a control group.
(§3) BZLF1 mRNA expression was measured in the same manner as in Example 1, with a group treated with sildenafil alone and a group treated with 10 nM of romidepsin simultaneously at a concentration of sildenafil of 10, 100 or 1000 nM in SNK6 and NK92MI cells as experimental groups. The treatment time was 72 hours.
(§4) The inhibition of EBV reactivation by sildenafil (100 nM, 72 hours), which was shown by treatment with 10 nM of romidepsin in SNK6 and NK92MI cell lines for 72 hours, was measured through EBV copy number, BALF5, BZLF1, and BRLF1 expression. In addition, cell growth was measured by counting live cells through trypan blue staining. BALF5 is a gene with the function of generating viral DNA produced through EBV reactivation. DNA was extracted from the medium using QIAamp DNA mini kit (Qiagen) and real-time quantitative PCR was performed to measure […]. […] The results of measuring the number of EBV copies in the SNK6 cells identified as described above are shown in FIG. 5A, the expression of BZLF1 mRNA is shown in FIG. 5B, the expression of BRLF1 mRNA is shown in FIG. 5C, and the survival rate of tumor cells is shown in FIG. 5D. In addition, the expression of BRLF5 mRNA in NK92MI cells is shown in FIG. 6A, the expression of BZLF1 mRNA is shown in FIG. 6B, the expression of BRLF1 mRNA is shown in FIG. 6C, and the survival rate of tumor cells is shown in FIG. 6D.
BZLF1 and BRLF1 mRNA expressions were identified and measured by qPCR in the same manner as in Example 3.1 that EBV reactivation, which was shown by treatment of 10 nM of romidepsin in the SNK6 cell line, was inhibited by the PDE5 inhibitors of vardenafil, udenafil or tadalafil. In this connection, vardenafil was treated with 100 nM for 72 hours, udenafil was treated with 100 nM for 48 hours, and tadalafil was treated with 1000 nM for 24 hours. The expression of BZLF1 mRNA in the vardenafil-administered group is shown in FIG. 7A, and the expression of BRLF1 mRNA is shown in FIG. 7B. In addition, the expression of BZLF1 mRNA in the udenafil-administered experimental group is shown in FIG. 7C, and the expression of BRLF1 mRNA is shown in FIG. 7D. In addition, the expression of BZLF1 mRNA in the tadalafil-administered experimental group is shown in FIG. 7E, and the expression of BRLF1 mRNA is shown in FIG. 7F.

[3] = system: Epstein-Barr virus (EBV) reactivation in NK-cell leukemia cell line NK92MI; assay: EBV reactivation by romidepsin in NK92MI cells (real-time PCR of BZLF1/BRLF1/BALF5); conditions: 72 hours
Experimental: as §2, §3, §4

[4] = system: Epstein-Barr virus (EBV) reactivation in Daudi cell line (Burkitt's lymphoma); assay: EBV reactivation by romidepsin in Daudi cell line (BZLF1/BRLF1 mRNA, EBV copy number); conditions: sildenafil 100 nM + romidepsin 10 nM simultaneously, 72 hours, versus romidepsin alone
Experimental: as §1
When sildenafil and romidepsin were simultaneously treated in the Daudi cell line, which is a cell line showing EBV reactivation by romidepsin identified in Example 3.1, an experiment was performed to determine whether EBV reactivation by romidepsin was inhibited. In the Daudi cell line, a group treated with 10 nM of romidepsin and 100 nM of sildenafil separately for 72 hours and a group treated therewith simultaneously were used as experimental groups, and a group treated with DMSO only was used as a control group. In order to measure the EBV copy number secreted out of the cell by EBV reactivation, by extracting DNA from the medium and measuring the Ct value by real-time PCR and comparing the same with the reference EBV number, the EBV copy number was measured and shown in FIG. 4A. In the same manner as in Example 3.1, BZLF1 mRNA expression was measured and shown in FIG. 4B, and BRLF1 mRNA was measured and shown in FIG. 4C.

SNK6 cells = assay: Cell growth/viability by counting live cells through trypan blue staining, SNK6; conditions: sildenafil 100 nM + romidepsin 10 nM, 72 hours; versus romidepsin alone
Experimental: as §4

NK92MI cells = assay: Cell growth/viability by counting live cells through trypan blue staining, NK92MI; conditions: sildenafil 100 nM + romidepsin 10 nM, 72 hours; versus romidepsin alone
Experimental: as §4

[5] = SNK6 cell line, sildenafil 100 nM + romidepsin 10 nM, 72 hours, versus romidepsin alone
[6] = NK92MI cell line, sildenafil 100 nM + romidepsin 10 nM, versus romidepsin alone
[7] = SNK6 cell line, udenafil 100 nM for 48 hours with romidepsin 10 nM

C/C=C1\NC(=O)[C@H]2CSSCC/C=C/[C@H](CC(=O)N[C@H](C(C)C)C(=O)N2)OC(=O)[C@H](C(C)C)NC1=O [romidepsin]
expression of BRLF1 mRNA [1]: increased | expression of BZLF1 mRNA [1]: only the expression of BRLF1 was increased

CCCc1nn(C)c2c(=O)[nH]c(-c3cc(S(=O)(=O)N4CCN(C)CC4)ccc3OCC)nc12 [sildenafil]
EBV copy number [2, 5]: decreased | expression of BRLF1 mRNA [2, 5]: decreased | expression of BZLF1 mRNA ([2]; SNK6 cells, sildenafil 100 nM together with romidepsin 10 nM, 72 hours, compared to romidepsin alone): significantly decreased | inhibition of EBV reactivation by romidepsin (BZLF1 mRNA expression) ([2]; SNK6 cells, sildenafil 10, 100 or 1000 nM in combination with romidepsin 10 nM, 72 hours): the effect of inhibiting the reactivation of EBV by romidepsin was observed | expression of BALF5 [3, 6]: decreased | expression of BRLF1 mRNA [3, 6]: decreased | expression of BZLF1 mRNA ([3]; NK92MI cells, sildenafil 100 nM together with romidepsin 10 nM, compared to romidepsin alone): significantly decreased | inhibition of EBV reactivation by romidepsin (BZLF1 mRNA expression) ([3]; NK92MI cells, sildenafil 10, 100 or 1000 nM in combination with romidepsin 10 nM): the effect of inhibiting the reactivation of EBV by romidepsin was observed | EBV copy number (DNA from the medium) [4]: no significant difference | expression of BRLF1 mRNA [4]: no significant difference | expression of BZLF1 mRNA [4]: no significant difference | viability of the SNK6 cell line (trypan blue) (SNK6 cells): decreased | viability of the NK92MI cell line (trypan blue) (NK92MI cells): decreased

CCCOc1ccc(S(=O)(=O)NCCC2CCCN2C)cc1-c1nc2c(CCC)nn(C)c2c(=O)[nH]1 (centres unmarked) [udenafil]
BRLF1 mRNA expression [2, 7]: decreased | BZLF1 mRNA expression [2, 7]: decreased
